Results on two molecules are retold here after patent publication EP1980561B1, “Substituted 1h-pyrazolo[3,4-b] pyridine derivatives active as kinase inhibitors” (NERVIANO MEDICAL SCIENCES S.R.L., priority 2007, dated 2008).

The structures appear in SMILES notation. Like-named read-outs stand apart in the source and are kept apart here.

For assay [1], the system named is S6 ribosomal protein phosphorylation (Ser235/236) in MCF-7 cells. Nature of the assay: Inhibition of AKT induced S6 ribosomal protein phosphorylation in MCF7 (immunofluorescence, ArrayScan). It counts as cell-based. The settings on record: Homo sapiens, compound treatment for 4 hour at 37°C, read-out: S6 phosphorylation (Ser235/236) in MCF7-cell IC50. On the procedure: MCF-7 cells (ATCC# HTB-22) were seeded in 96-well poly-lysine coated clear- and flat-bottomed black plates (Matrix Technologies Inc., Hudson, NH, USA), in E-MEM medium (MEM+ Earle's BSS + 2 mM glutamine + 0.1 mM non-essential amino acids) containing 10% of FCS at a density of 7000 cells/well, and incubated overnight at 37°C, 5% CO2, 100% relative humidity. After this incubation, cells were treated with increasing compound doses for 4 hour at 37°C. Afterwards, cells were fixed with PBS/3.7% paraformaldehyde for 15 min at room temperature, wash twice with 200 µl/well D-PBS and permeabilize with a D-PBS solution containing 0.1% Triton X-100 (Sigma-Aldrich, St. Louis, MO, USA) and 0.1% powder Milk for 15 minutes (staining solution). […] Fluorescence images in the DAPI and Cy5™ channels were automatically acquired, stored and analysed using a Cellomics ArrayScan™ IV instrument (Cellomics, Pittsburgh, USA); the Cellomics Cytotoxicity Algorithm was used to quantify cytoplasmic fluorescence associated with phospho-S6 (Cy5™ signal parameter: "Mean Lyso Mass-pH") for each cell in 10 fields/well, and eventually expressed as a mean population value. […]

The target of another assay is T1, PKAα (Homo sapiens, UniProt P17612).
T1 construct: polyHis; made in house; host or cells: E. coli
Nature of the assay: FABS-NMR screening (3-FABS, 19F-labelled AKTide-like substrate) on PKA. It counts as biochemical. The conditions noted are these: 25 nM protein, 30 µM substrate, 150 µM ATP. On the procedure: (§1) The biochemical functional NMR screening on the proteins kinase AKT-1 and PKA was performed using the 3-FABS (3-Fluorine Atoms for Biochemical Screening) technique developed by C. Dalvit and the NMR group in house (C. Dalvit et al 2003 J. Am. Chem. Soc. 125 (47): 14620).
(§2) The method require the use of a ^19F-labelled substrate. The same commercial peptide was used as substrate in both enzymatic reaction: the Tyr just before the phosphorilation site in the AKTide peptide was mutated in a 3-tryfluormethyl-Phe by Bachem.
(§3) The AKTide like peptide sequence is reported below: • H-Ala-Arg-Lys-Arg-Glu-Arg-Ala-Phe(3-CF3)-Ser-Phe-Gly-His-His-Ala-OH
The active cycled AMP-dependent human protein kinase A PKA was expressed as polyHis-tag protein in E.Coli and purified by affinity column.
(§4) Reactions were performed in an end point format in eppendorf of 0.5 ml using the buffer solution 50mM Tris, pH 7.5, 5mM MgCl2, 1mM DTT, 8% D2O and 0.001% Triton-X-100; the final volume was of 560 µl. […] The spectra were recorded using the Varian Inova 600 MHz NMR spectrometer operating at a ^19F Larmor frequency of 564 MHz and using a 5mm probe with the inner coil tuned to ^19F and the outer coil tuned to H. The data were recorded without proton decoupling with a spectral width of 12000 Hz, an acquisition time of 0.8s and a relaxation delay of 2.8s. […]

The target of assay [2] is T2, AKT1 (Homo sapiens, UniProt P31749). Nature of the assay: Biochemical assay for inhibitors of AKT1 kinase activity (33P trans-phosphorylation, Dowex resin). On the set-up: GST (N); made in house. The settings on record: 5 nM enzyme, 132 microM ATP, 30 microM peptide substrate, 60 minutes at room temperature. The method, then:
(§5) The N-terminal GST fusion proteins used for the assays were prepared according to the methods described in Kumar, C. C. Biochem. Biophys. ACTA 2001, 1526, 257-268, and in Alessi, D. R.. Biochem. J. 1998 331, 299-308.
The inhibitory activity of putative kinase inhibitors and the potency of selected compounds were determined using a trans-phosphorylation assay.
A specific substrate was incubated with the kinase in appropriate buffer conditions in the presence of ATP traced with ^33P-γ-ATP (gamma phosphate-labeled, Redivue™
Code Number AH9968, 1000-3000Ci/mmole, Amersham Biosciences Piscataway, NJ, USA), optimal cofactors and test compound.
At the end of the phosphorylation reaction, more than 98% cold and radioactive ATP were captured by an excess of Dowex ion exchange resin. The resin was allowed to settle to the bottom of reaction wells by gravity. Supernatant, containing substrate peptide, was subsequently withdrawn and transferred into a counting plate, and radioactivity (corresponding to phosphate incorporated into peptide) was evaluated by β-counting.
Kinase buffer was composed of 50 mM TRIS pH 7.5 containing10 mM MgCl2, 1 mM DTT, 3 microM Na3VO4, and 0.2 mg/mL BSA. 3X KB is buffer of the same composition and pH as KB, but with three times the concentration of each component. […]

Another assay addresses AKT3 (Homo sapiens, UniProt Q9Y243). Nature of the assay: Biochemical assay for inhibitors of AKT3 kinase activity (33P trans-phosphorylation, Dowex resin). On the procedure: The N-terminal GST fusion proteins used for the assays were prepared according to the methods described in Kumar, C. C. Biochem. Biophys. ACTA 2001, 1526, 257-268, and in Alessi, D. R.. Biochem. J. 1998 331, 299-308. The in vitro kinase inhibition assay was conducted in the same way as described for AKT1. The kinase assay was run with a final enzyme concentration of 1 nM, in the presence of 180 microM ATP, 0.88 nM ^33P-γ-ATP and 28.5 microM substrate, a carboxy-terminally biotinylated peptide of the following sequence: ARKRERTYSFGHHA-biotin. The peptide was obtained in batches of >95% peptide purity from PRIMM labs Inc. (Boston MA, USA).

The target of assay [3] is T2, AKT1. Nature of the assay: FABS-NMR screening (3-FABS, 19F-labelled AKTide-like substrate) on AKT-1. Format: biochemical. On the set-up: The active human Ser-Thr protein kinase AKT-1 Full Length was expressed as GST fusion protein; GST (cleaved yes); made in house; host or cells: insect cells. The conditions noted are these: 25 nM protein, 30 µM substrate, 1.5 mM ATP; read-out: AKT1 IC50 FABS NMR assay. On the procedure:
as §1, §2, §3
The active human Ser-Thr protein kinase AKT-1 Full Length was expressed as GST fusion protein in insect cells and then the GST was cleaved with PreScission protease.
as §4

For a further assay, the target named is T3, AKT2 (Homo sapiens, UniProt P31751).
T3 construct: GST (N); made in house
Nature of the assay: Biochemical assay for inhibitors of AKT2 kinase activity (33P trans-phosphorylation, Dowex resin). The settings on record: 10 nM enzyme, 396 microM ATP, 8.5 microM peptide substrate. The method, then: as §5
The in vitro kinase inhibition assay was conducted in the same way as described for AKT1. The kinase assay was run with a final enzyme concentration of 10 nM, in the presence of 396 microM ATP, 0.88 nM ^33P-γ-ATP and 8.5 microM substrate, a carboxy-terminally biotinylated peptide of the following sequence:
ARKRERTYSFGHHA-biotin. The peptide was obtained in batches of >95% peptide purity from PRIMM labs Inc. (Boston MA, USA).

T2 sequence (P31749 whole entry, the tested form may be a part): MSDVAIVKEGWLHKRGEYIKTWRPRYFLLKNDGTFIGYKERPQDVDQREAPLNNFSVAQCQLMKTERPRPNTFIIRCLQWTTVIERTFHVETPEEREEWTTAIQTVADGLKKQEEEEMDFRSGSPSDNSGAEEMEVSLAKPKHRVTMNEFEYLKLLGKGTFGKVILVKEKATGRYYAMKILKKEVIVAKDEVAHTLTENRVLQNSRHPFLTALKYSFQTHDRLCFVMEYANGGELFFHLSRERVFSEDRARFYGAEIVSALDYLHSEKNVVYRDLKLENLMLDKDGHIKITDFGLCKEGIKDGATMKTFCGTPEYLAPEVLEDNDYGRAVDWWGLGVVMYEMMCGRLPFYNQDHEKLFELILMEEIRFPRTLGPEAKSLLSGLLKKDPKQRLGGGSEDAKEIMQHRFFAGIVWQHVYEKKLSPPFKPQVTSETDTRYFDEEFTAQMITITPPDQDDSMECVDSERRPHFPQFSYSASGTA
T3 sequence (P31751 whole entry, species assumed): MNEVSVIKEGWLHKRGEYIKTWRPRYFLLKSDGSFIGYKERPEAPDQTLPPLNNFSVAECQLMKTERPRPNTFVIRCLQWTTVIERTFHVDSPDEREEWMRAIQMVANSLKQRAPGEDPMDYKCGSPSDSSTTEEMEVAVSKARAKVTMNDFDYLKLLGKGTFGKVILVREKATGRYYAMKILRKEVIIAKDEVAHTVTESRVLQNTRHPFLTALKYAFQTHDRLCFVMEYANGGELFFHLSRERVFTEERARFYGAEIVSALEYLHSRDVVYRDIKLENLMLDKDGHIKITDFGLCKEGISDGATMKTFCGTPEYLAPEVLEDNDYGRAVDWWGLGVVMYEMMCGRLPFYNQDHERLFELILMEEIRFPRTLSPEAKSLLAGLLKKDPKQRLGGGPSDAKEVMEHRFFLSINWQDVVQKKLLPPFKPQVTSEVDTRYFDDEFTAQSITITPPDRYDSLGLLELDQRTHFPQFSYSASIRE
Sequence of AKT3 (Q9Y243 2-479): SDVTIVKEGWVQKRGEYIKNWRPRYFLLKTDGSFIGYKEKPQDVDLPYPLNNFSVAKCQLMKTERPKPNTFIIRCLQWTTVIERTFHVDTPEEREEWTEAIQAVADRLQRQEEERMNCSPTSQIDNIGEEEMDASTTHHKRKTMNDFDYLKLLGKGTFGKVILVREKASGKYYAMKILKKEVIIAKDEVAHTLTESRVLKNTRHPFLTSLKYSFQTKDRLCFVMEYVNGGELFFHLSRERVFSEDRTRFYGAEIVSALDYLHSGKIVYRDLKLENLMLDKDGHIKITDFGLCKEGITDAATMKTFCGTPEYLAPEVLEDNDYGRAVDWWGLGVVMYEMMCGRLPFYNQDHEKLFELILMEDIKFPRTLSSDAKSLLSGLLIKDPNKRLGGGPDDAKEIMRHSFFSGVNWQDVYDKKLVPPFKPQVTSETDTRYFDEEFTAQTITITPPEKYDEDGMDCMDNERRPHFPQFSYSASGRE

As to `NC[C@H](Cc1ccccc1)NC(=O)/C=C/c1n[nH]c2ncccc12` [Compound 1, (E)-N-((S)-2-amino-1benzyl-ethyl)-3-(1H-pyrazolo[3,4-b]pyridin-3-yl)acrylamide tris(trifluoroacetate)], the IC50 turned out to be 1350 nM in assay [1]; 25 nM on PKAα; 17 nM against AKT1 [2]; 19 nM against AKT3; 62 nM on AKT1 [3]; 92 nM on AKT2.

With `CN1CCN(C[C@@H](NC(=O)/C(=C/c2n[nH]c3ncccc23)c2cn(C)c3ccc(Br)cc23)c2ccccc2)CC1` [Compound 10, (2E)-2-(5-bromo-1-methyl-1H-indol-3-yl)-N-[(1S)-2-(4-methylpiperazin-1-yl)-1-phenylethyl]-3-(1H-pyrazolo[3,4-b]pyridin-3-yl)acrylamide], the IC50 worked out at 16000 nM in assay [1]; 1900 nM against PKAα; 149 nM against AKT1 [2]; 108 nM on AKT3 (1 nM enzyme, 180 microM ATP, 28.5 microM peptide substrate, read-out: AKT3 IC50 Biochemical assay); 62 nM on AKT1 [3]; 786 nM against AKT2.
